Square brackets hold non-standard residues; d marks the D form. Peptide text beside a SMILES is read from it. * marks the point of attachment. dPhe(4-NHCONH2) = NC(=O)Nc1ccc(C[C@@H](N)C(=O)O)cc1; Dihydroorotyl(S) = O=C1C[C@@H](C(=O)*)NC(=O)N1; dPhe(4-Cl) = N[C@H](Cc1ccc(Cl)cc1)C(=O)O; Phe(4-NH2) = Nc1ccc(C[C@H](N)C(=O)O)cc1; d2Nal = N[C@H](Cc1ccc2ccccc2c1)C(=O)O; Lys(iPr) = CC(C)NCCCC[C@H](N)C(=O)O; d3Pal = N[C@H](Cc1cccnc1)C(=O)O
Columns and labels:
Myc-CaP/AS tumors [1] = test: AR expression in MycCaP tumors in vivo after chemical castration, intracellular staining; parameters: species or system FVB mice; conditions: MycCaP model in vivo, degarelix vs sham, tumors at outgrowth
Excerpt: Briefly, Human 22Rv1 prostate cancer cells cultured in androgen replete (FCS) or—deprived (CSS) conditions (FIG. 7A), or mouse MycCaP cells serially passaged in untreated (MycCaP/AS) or castrate (MycCaP/CR) mice (FIG. 7B) were collected and analyzed for AR expression by qPCR (left panels), ELISA (center panels), and intracellular staining (ICS, right panels). FIG. 7C, FVB mice were challenged with MycCaP/AS tumor cells, and given degarelix or a sham treatment. At the time of outgrowth, tumors were collected and analyzed for AR expression by intracellular flow cytometry (example histogram with samples stained with IgG or AR-intracellular antibodies; quantified in right panels). FIG. 7D, AR-specific CD8+ T cells were cultured with 22Rv1/FCS or 22Rv1/CSS cells, and evaluated for T-cell activation by CD69 expression (left panel), IFNγ and TNFα cytokine expression (center panel), and cytotoxicity (right panel). In all panels, * indicates p<0.05 by Student's t-test.
FVB mice were inoculated subcutaneously with […] Myc-CaP/AS tumor cells, and followed daily for the presence of palpable tumors. Once tumors were palpable, mice were treated subcutaneously with either degarelix (25 mg/kg) or a vehicle sham treatment every four weeks. […] Tumor growth was measured at least three times weekly, and tumor volumes calculated as we've published (19). […]

Myc-CaP/AS tumors [2] = test: Myc-CaP/AS tumor growth in FVB mice, ADT with or without immunization; type: in vivo; conditions: degarelix alone, MycCaP model
Experimental: Briefly, male FVB mice (n=8) were implanted with MycCaP tumors, treated with degarelix (or sham), and immunized weekly with pTVG-AR or control pTVG4. FIG. 8A, splenocytes were collected and analyzed for immune responses against MycCaP/CR tumor cells by intracellular cytokine staining (left panel) and AR peptide-stimulated splenocytes from pTVG-AR-immunized mice were measured for ability to lyse MycCap/AS vs. MycCap/CR tumor cells (right panel). FIG. 8B depicts mice followed for tumor volume. In all panels, * indicates p<0.05 by Student's t-test. FIG. 8C depicts tumor volume post-challenge of control (sham), degarelix+pTVG4 and degarelix+pTVG-AR.
FVB mice were inoculated subcutaneously with […] Myc-CaP/AS tumor cells, and followed daily for the presence of palpable tumors. Once tumors were palpable, mice were treated subcutaneously with either degarelix (25 mg/kg) or a vehicle sham treatment every four weeks. For immunization studies, degarelix-treated animals were randomized to weekly immunization with 100 μg pTVG4 or pTVG-AR beginning one day after receiving degarelix. Tumor growth was measured at least three times weekly, and tumor volumes calculated as we've published (19). At the time of euthanasia, tumors and spleens were collected. […]

[3] = system: PTEN-deficient prostate tumors; test: Autochthonous prostate tumors in PbCre+ PTENfl/fl mice, PET/CT and necropsy; type: in vivo; conditions: androgen deprivation (degarelix) vs sham, pre- to post-treatment
Experimental: FVB mice were inoculated subcutaneously with […] Myc-CaP/AS tumor cells, and followed daily for the presence of palpable tumors. Once tumors were palpable, mice were treated subcutaneously with either degarelix (25 mg/kg) or a vehicle sham treatment every four weeks. For immunization studies, degarelix-treated animals were randomized to weekly immunization with 100 μg pTVG4 or pTVG-AR beginning one day after receiving degarelix. Tumor growth was measured at least three times weekly, and tumor volumes calculated as we've published (19). At the time of euthanasia, tumors and spleens were collected. For studies using PTEN-deficient mice, animals began receiving degarelix (25 mg/kg) at 20 weeks (+/−two weeks) of age, followed by biweekly immunization with 100 μg pTVG4 or pTVG-AR beginning one day after ADT. Animals were treated until 40 weeks of age (+/−two weeks) before tissue collection.
All mice were intravenously administered between 5-8 MBq of 124I-CLR1404 and then micro positron emission tomography/computed tomography (PET/CT) scanned 96 hrs post-injection. During scanning, mice were anesthetized with 2% isoflurane inhalation gas mixed with 1 L/min of pure oxygen (27). […]
All PET and CT images were co-registered. Image data were analyzed using the General Analysis tools provided by Siemens Inveon Research Workplace (Siemens Medical Solutions). […]

prostate tumor cells = test: AR expression in prostate tumor cells in vitro after treatment with AR antagonists; type: cell-based; conditions: after treatment with AR antagonist

| Structure (SMILES) | AR expression in tumors (Myc-CaP/AS tumors [1]) | tumor growth (Myc-CaP/AS tumors [2]) | 124I-CLR1404 mean and max tumor uptake [3] | AR expression in prostate tumor cells (prostate tumor cells) |
| --- | --- | --- | --- | --- |
| CC(=O)N[C@H](Cc1ccc2ccccc2c1)C(=O)N[C@H](Cc1ccc(Cl)cc1)C(=O)N[C@H](Cc1cccnc1)C(=O)N[C@@H](CO)C(=O)N[C@@H](Cc1ccc(NC(=O)[C@@H]2CC(=O)NC(=O)N2)cc1)C(=O)N[C@H](Cc1ccc(NC(N)=O)cc1)C(=O)N[C@@H](CC(C)C)C(=O)N[C@@H](CCCCNC(C)C)C(=O)N1CCC[C@H]1C(=O)N[C@H](C)C(N)=O [degarelix] (Ac-[d2Nal][dPhe(4-Cl)][d3Pal]S[Phe(4-NH2)](Dihydroorotyl(S))[dPhe(4-NHCONH2)]L[Lys(iPr)]P[dA]-NH2) | increased AR expression in tumors | delay in tumor growth | decreased 124I-CLR1404 mean and max tumor uptake | – |
| CNC(=O)c1ccc(N2C(=S)N(c3ccc(C#N)c(C(F)(F)F)c3)C(=O)C2(C)C)cc1F [enzalutamide] | – | – | – | increased AR expression |

From patent US10881719B2, “Combinatorial androgen deprivation with an androgen receptor vaccine” (Wisconsin Alumni Research Foundation, priority 2016, dated 2021)
